From patent US20130109664A1 (priority 2011, published 2013)
Like-named read-outs stand apart in the source and are kept apart here.

Assays:
[1] = test system: Malassezia furfur; test: Intrinsic anti-Malassezia potency, growth inhibition by optical density; type: cell-based; conditions: for IC50: M. furfur in mDixon medium, overnight at 31°, OD 600 nm; for independent anti-fungal effectiveness (in words): comment on Table 1 data
Method: To measure the growth inhibition properties of test materials against Malassezia, we carried out the following protocol.
Starting cultures are prepared by incubating with shaking at 31°. Cells (5 ml of culture) are collected by centrifugation and suspended in 50 ml fresh mDixon medium. […] The plates are shaken vigorously on a Heidolph Titramax 100 overnight at 31°. To increase the humidity, water-soaked cotton batting is placed over the plates.
As a control, the optical density of untreated M. furfur is measured after overnight incubation. As another control, the optical density of the starting culture is measured. The difference between these optical densities represents the amount of growth of M. furfur.

[2] = cited from earlier work
[3] = test system: M. furfur 7982; test: Fractional Inhibitor Concentration (FIC) of chelator in combination with ZPT; type: cell-based, Malassezia furfur; conditions: average of duplicate plates, 2 days at 33° C., ≦0.5 synergistic, >0.5-1.0 additive
Source text: Fractional Inhibitor Concentration (FIC) is a conventional methodology for evaluating antimicrobial interactions. In an embodiment of the present invention, an FIC is used to determine combinatorial effects of two chemicals on anti-Malassezia activity in a tissue culture setting.
• 1. Each FIC assay is run in duplicate. • 2. Low levels of M. furfur 7982 cells are inoculated into each well of a 96 well plate. • 3. Chemical #1 (in our assays, this is always ZPT) is titrated (2× concentration reductions) from right to left across each row of the plate, starting at 12.5 ppm final concentration and ending at 0 ppm. • 4. […] Plates are incubated at 33° C., 60% RH for 2 days with agitation. • 6. Optical densities (OD's) are then determined using a spectrophotometer.
• 1. […] Lack of inhibition of growth is determined if the OD>0.6, and the well is labeled with a ‘+’. • 3. The lowest concentration value of chemical #1, both by itself and with the lowest concentration of chemical #1 which boosts chemical #2's potency, that inhibit growth are determined (see FIG. 1). • 4. Likewise, the lowest concentration of chemical #2, both by itself and with the lowest concentration of chemical #2 that boosts chemical #1's potency, that inhibit growth are determined (see FIG. 1). • 5. The FIC value for the duplicate plates is determined using the calculations below:
[formula] [formula] • 6. The average FIC value is then determined, and the combinatorial effect of the two chemicals is classified according to the chart below: […]

[4] = Iron affinity, stepwise association constant log K1; type: physicochemical
Source text: The strength of the association between a ligand and metal, in this case iron, can be termed iron affinity.
The affinity constant is conveniently expressed as the logarithm (log K1) and the larger the magnitude of this number, the stronger the association between the metal (iron ions in this case) and ligand.

[5] = source (a) NIST Standard Reference Database 46
[6] = (c) interpolated from correlation between Zn2+ and Fe2+ data
[7] = (d) interpolated from correlation between Fe3+ and Fe2+ data
[8] = (e) interpolated from correlation between Cu2+ and Fe2+ data
[9] = source (b) IUPAC Stability Constant Database

Molecule: O=C(O)CN1CCCN(CC(=O)O)CCN(CC(=O)O)CCCN(CC(=O)O)CC1 [1,4,8,11-Tetraazacyclotetradecane-N,N′,N″,N″′-tetraacetic acid]
- IC50 [1]: > 500 µM
- Iron Affinity, log K1 Fe2+, pH = 7.4 [2, 5]: 9.9

Molecule: Thiomaltol, Zinc salt
- FIC (Fractional Inhibitory Concentration) [3]: 0.5

Molecule: Cc1occc(=O)c1O [maltol]
- independent anti-fungal effectiveness (in words) [1]: too hydrophilic to be an effective anti-fungal material independently
- Iron Affinity, log K1 Fe2+, pH = 7.4 [4, 6]: 6.4

Molecule: NCCc1ccccn1 [2-(2-aminoethyl)-pyridine]
- Iron Affinity, log K1 Fe2+, pH = 7.4 [4, 7]: 5.2

Molecule: Cc1c(O)c(=O)ccn1C [3-Hydroxy-1,2-dimethyl-4(1H)-pyridone]
- Iron Affinity, log K1 Fe2+, pH = 7.4 [4, 6]: 3.9

Molecule: c1ccc(-c2cccc(-c3ccccn3)n2)nc1 [2,2′: 6′,2″-terpyridine]
- Iron Affinity, log K1 Fe2+, pH = 7.4 [4, 6]: 5.0

Molecule: c1ccc(CN(CCN(Cc2ccccn2)Cc2ccccn2)Cc2ccccn2)nc1 [N,N,N′,N-tetrakis(2-pyridylmethyl) ethylenediamine]
- IC50 [1]: 71 µM
- Iron Affinity, log K1 Fe2+, pH = 7.4 [2, 5]: 14.2

Molecule: C1CNCCNCCNCCNCCNCCN1 [1,4,7,10,13,16-Hexaazacyclooctadecane]
- Iron Affinity, log K1 Fe2+, pH = 7.4 [4, 8]: 13.3

Molecule: CCC(NCCNC(CC)C(=O)O)C(=O)O (stereo not shown) [Ethylenediiminodi-2-butanoic acid]
- IC50 [1]: > 500 µM
- Iron Affinity, log K1 Fe2+, pH = 7.4 [4, 6]: 6.3

Molecule: O=C1c2cccc3cccc(c23)C(=O)N1O [N,N-Naphthaloylhydroxylamine]
- FIC (Fractional Inhibitory Concentration) [3]: 0.8

Molecule: NCCC(=O)N[C@@H](Cc1c[nH]cn1)C(=O)O [beta-Alanyl-L-histidine]
- Iron Affinity, log K1 Fe2+, pH = 7.4 [4, 6]: 1.3

Molecule: S=C(N=Nc1ccccc1)NNc1ccccc1 [1,5-Diphenyl-1,2,4,5-tetraazapent-1-en-3-thione]
- Iron Affinity, log K1 Fe2+, pH = 7.4 [2, 5]: 6.5

Molecule: Oc1c(I)cc(Cl)c2cccnc12 [5-Chloro-8-hydroxy-7-iodoquinoline]
- Iron Affinity, log K1 Fe2+, pH = 7.4 [2, 9]: 7.0

Molecule: Oc1ccc2ccccc2c1N=Nc1nccs1 [1-(2-Thiazoylazo)-2-naphthol]
- IC50 [1]: 250 µM
- Iron Affinity, log K1 Fe2+, pH = 7.4 [4, 6]: 6.6

Molecule: O=C(O)CN(CCN(CC(=O)O)CC(=O)O)CC(=O)O [Ethylenediaminetetraacetic acid]
- IC50 ([1]; Malassezia furfur): > 500 µM
- independent anti-fungal effectiveness (in words) [1]: not to be effective

Molecule: Cc1ccc2ccc3ccc(C)nc3c2n1 [2,9-dimethyl-1,10-phenanthroline]
- Iron Affinity, log K1 Fe2+, pH = 7.4 [4, 6]: 3.3

Molecule: O=C(O)CN(CCO)CCO [N,N-Bis(2-hydroxyethyl)glycine]
- Iron Affinity, log K1 Fe2+, pH = 7.4 [4, 6]: 3.6

Molecule: Oc1ccc(N=Nc2nccs2)c(O)c1 [4-(2-thiazolylazo)-resorcinol]
- Iron Affinity, log K1 Fe2+, pH = 7.4 [2, 5]: 3.2

Molecule: Cc1c([O-])c(=O)ccn1C.Cc1c([O-])c(=O)ccn1C.[Zn+2] [1,2-Dimethyl-3-hydroxy-4-pyridone, Zinc salt]
- FIC (Fractional Inhibitory Concentration) [3]: 0.5

Molecule: Benzohydroxamic acid, Zinc Salt
- FIC (Fractional Inhibitory Concentration) [3]: 0.3

Molecule: O=c1cc(CO)occ1O [kojic acid]
- Iron Affinity, log K1 Fe2+, pH = 7.4 [4, 6]: 3.7

Molecule: O=C(O)CN(CC(=O)O)[C@@H]1CCCC[C@H]1N(CC(=O)O)CC(=O)O (relative stereo) [trans-1,2-Cyclohexylenedinitrilotetraacetic acid]
- IC50 [1]: 500 µM
- Iron Affinity, log K1 Fe2+, pH = 7.4 [2, 5]: 14.0

Molecule: CCCCCCCCOc1cccc(=O)n1[O-].CCCCCCCCOc1cccc(=O)n1[O-].[Zn+2] [N-Hydroxy-6-octyloxypyridine-2(1H)one, zinc salt]
- FIC (Fractional Inhibitory Concentration) [3]: 0.7

Molecule: c1cnc2c(c1)ccc1cccnc12 [1,10-Phenanthroline]
- Iron Affinity, log K1 Fe2+, pH = 7.4 [2, 5]: 5.9

Molecule: Maltol, Zinc salt
- FIC (Fractional Inhibitory Concentration) [3]: 0.1

Molecule: Oc1cccc2cccnc12 [8-hydroxyquinoline]
- Iron Affinity, log K1 Fe2+, pH = 7.4 [4, 6]: 4.9

Molecule: CCCCCCCCOc1cccc(=O)n1O.NCCO [N-Hydroxy-6-octyloxypyridine-2(1H)one, ethanolamine salt]
- IC50 [1]: 54.6 µM
- FIC (Fractional Inhibitory Concentration) [3]: 0.62
- Iron Affinity, log K1 Fe2+, pH = 7.4 [4, 7]: 5.4

Molecule: Oc1c(Cl)cc(Cl)c2cccnc12 [5,7-dichloro-8-hydroxyquinoline]
- Iron Affinity, log K1 Fe2+, pH = 7.4 [2, 9]: 7.2

Molecule: CC(C)c1cccc(O)c(=O)c1 [1-Hydroxy-4-(1-methylethyl)cyclohepta-3,5,7-trien-2-one]
- IC50 ([1]; Malassezia furfur): 65 µM
- Iron Affinity, log K1 Fe2+, pH = 7.4 [4, 6]: 4.9

Molecule: Cc1occc(=S)c1O [Thiomaltol]
- FIC (Fractional Inhibitory Concentration) [3]: 0.8

Molecule: O=C(O)c1ccccc1O [Salicylic acid]
- IC50 ([1]; Malassezia furfur): > 500 µM
- Iron Affinity, log K1 Fe2+, pH = 7.4 [4, 8]: −3.0

Molecule: [O-]n1ccccc1=S.[O-]n1ccccc1=S.[Zn+2] [Zinc Pyrithione, zinc salt of 1-hydroxy-2-pyridinethione]
- Iron Affinity, log K1 Fe2+, pH = 7.4 [4, 6]: 4.3
